# Reference: patent US20250281679A1, “BIOMIMETIC COATING FOR ENDOVASCULAR STENT” (INSERM (Institut National de la Santé et de la Recherche …, priority 2021, published 2025)
# Square brackets hold non-standard residues; d marks the D form. Primed or numbered codes have the meaning given here. Ends that are not written are not given here. Lys(N3) = [N-]=[N+]=NCCCC[C@H](N)C(=O)O; PEG4′ = not defined here
# How the values were obtained:
# [1] = system: Human aortic endothelial cells; experiment: Human aortic endothelial cells grown 48 h on bare or peptide-coated nitinol disks; F-actin and CD31 fluorescence image analysis; format: cell-based
# Procedure: Nitinol disks are left untouched (bare metal) or coated with a domain 1, domain 2 or domain 1 and 2 CD31 analog peptide. The tested peptide is grafted to the nitinol disk following a polydopamine, DBCO-PEG4-amine and azide CD31 derivative peptide using a sequential dip-coating layering procedure. After this step, all the disks are incubated with Human aortic endothelial cells for 48h. Disks are then rinsed and the cells are fixed in a formalin solution before staining. The staining is fulfilled using phalloidin coupled to AlexaFluor®488 dye (green fluorescence for Actin), DAPI is used for DNA staining and a domain 1 CD31 antibody coupled to APC is used for external Domain 1 staining. The cell adhesion and Actin/CD31 expression was evaluated by image analysis of the surface after staining.
# In particular, as per FIG. 2 the bare or coated nitinol disks were placed at the bottom of culture wells. Primary Human Aortic Endothelial Cells (HAEC) were allowed to grow on the disks for a period of 48 h. The disks were thereafter rinsed with phosphate buffered saline, fixed in formalin, and processed for fluorescence microscopy. Disk-adherent cells were immersed in a solution comprising Hoechst 33342 (1 μg/ml, to stain the nuclei), phalloidin coupled to AlexaFluor®488 dye (0.5 μM, to stain F-actin fibers) and a monoclonal antibody directed against CD31 domain 1, coupled to allophycocyanin (to detect the presence and localization of intact CD31 at the cell surface) for 1 hour at 37° C., washed and mounted face down on glass bottom imaging chambers for imaging with an inverted fluorescence microscope.
# Surface type is indicated on the Y axis, data are expressed as average±SD (N=6/surface type). Each dot corresponds to a specific surface modification. The F-actin expression relates the cellular stress of the cell in presence of the exogenous material.
# In FIG. 4 the surface type is indicated on the Y axis. Each dot corresponds to a specific surface modification. Data are expressed as “Integrated Density” average±SD (N=6/surface type). CD31 expression relates the capacity of endothelial cells to adopt a physiologic phenotype while growing on a given substrate. An important variability is observed in terms of CD31 expression by HAEC according to the surface modification of the nitinol disks.
# The effect of different peptides, belonging to the different groups, were tested in batches following the same protocol as in FIG. 6. Different peptides from each group were tested in batches and the effect of individual peptides was repeatedly assessed in separate experiments. Data from all experiments were obtained by computer-assisted analysis of images of the disk side covered with endothelial cells, captured in the blue, green and red channel of an inverted fluorescence microscope. The functional score of the peptides belonging to the different groups was calculated by multiplying the number of cells (as detected by the number of blue, Dapi+ nuclei) for the integrated density of CD31 expression (red signal provided by the binding of a mouse anti-human CD31 monoclonal antibody, clone 9G11, conjugated allophycocyanin) and their product being divided for the integrated density of the F-actin polymerization (Phalloidin coupled to a green fluorochrome).
# The same protocol as in Example 1 was followed, using peptides according to the invention (SP547, SP548 SP745, SP1374, SP1072, SP1070, SP1071, SP1379 and SP1383) as defined above and the prior art peptide P8RI of sequence KWPALFVR (SEQ ID NO: 52).
# The “CD31/Actin” score, resulting from the integrated density of CD31 immunostaining signal divided by the signal of phalloidin, which binds to the polymerized F-actin of the cytoskeleton, has been used to identify the physiological/non-stressed character of the arterial endothelial cells growing onto the surface of experimental disks placed at the bottom of culture wells. […]
# [2] = system: New Zealand White rabbits; experiment: Coated flow-diverter stents (CFD) implanted in aneurysm-carrying artery and abdominal aorta of the rabbit aneurysm model, with aspirin and clopidogrel; SEM and histopathology; format: in vivo
# Text: Flow-diverter stents (CFD) are braided meshes made of nitinol, from Sinomed. They are coated by one of the following coatings: • 1. SP1072 peptide according to the invention, or • 2. Hydrophilic polymer eG NTMA (obtained from the electrografting of N-[Tris(hydroxymethyl)Methyl] Acrylamide).
# A total of 8 healthy New Zealand White rabbits (including 2 spare animals), male and female, weighing about 3 kg, were included in this study. A total of 3 observation time points of 7 days, 30 days and 60 days postoperatively were set. The experiment was divided into two steps: 1) aneurysm animal modeling; 2) implantation of a dense mesh stent in the aneurysm-carrying artery and abdominal aorta for each animal. The stent implantation in the aneurysm-carrying artery was to be used to examine the safety and effectiveness of the stent in treating aneurysms, and the stent implantation in the abdominal aorta, covering a pair of lumbar arteries, was to be used to examine the safety of the tested stent.
# The test group was implanted with a dense mesh stent system in the aneurysm location (common carotid artery) and in the abdominal aorta of the animal model, and the control group was implanted with a dense mesh stent system in the aneurysm-carrying artery, where the abdominal aorta was implanted with the device to evaluate the effect of the stent on the penetrating and branch vessels.
# In addition to heparin sodium injection 150 U/kg by IV during implantation, antiplatelet therapy (aspirin and clopidogrel) was given to the animals at 5 mg/kg each by feeding once a day for 3 days before surgery and at 5 mg/kg each by feeding postoperative to endpoint.
# The collected tissues of the stented segments of the carrier arteries were preserved in 10% neutral formalin for more than 48 hours of immersion fixation, dehydrated in alcohol gradient and treated with xylene transparency for histopathological analysis.
# The resin-embedded stented segment of the aneurysm-carrying artery was sectioned transversely through the neck of the aneurysm, with one slice cut at the aneurysm and two slices cut at the non-aneurysm, and stained with HE; the non-stented segment was paraffin-embedded, with one slice cut at the proximal and one at the distal end; HE staining was performed for histopathological evaluation.
# One animal each at 7D (7 days), 30D (30 days) and 60D (60 days) was randomly selected, and the aneurysm-carrying artery and abdominal aorta implanted at the above time points were collected for SEM to observe the endothelialization of the flow-directed stent at the aneurysm neck site and the opening site of the branch vessels at the abdominal aorta site.
# [3] = system: New Zealand White rabbits; experiment: Coated flow-diverter stents (CFD) in the rabbit aneurysm model, no aspirin nor clopidogrel after implantation; format: in vivo; conditions: 7 days, n=3, no aspirin nor clopidogrel after the implantation; preliminary
# Text: The same materials and protocol as in Example 3 were used, except that: • Only 3 animals were used for each condition, and. • No aspirin nor clopidogrel was given to animals after the implantation.
# [4] = day 7, aneurysm-carrying artery, HE staining, FIG. 29
# [5] = day 60, aneurysm-carrying artery, FIG. 30
substance,measurement,setting,value
YKSTVIVNNKEKTTAE-PEG4-K(N3)-CONH2 (YKSTVIVNNKEKTTAE[PEG4′][Lys(N3)]-NH2) [SP1072],CD31/Actin score,"[1]; Example 2, FIG. 25, compared to bare metal disks or disks coated with PDA alone",significantly higher
same,"CD31 expression, Integrated Density","[1]; HAEC 48 h on coated nitinol disks, anti-CD31 domain 1 antibody, compared to other modified disks and bare controls, FIGS. 2, 4, 5",evident positive effect in terms of CD31 expression
same,ratio between CD31 and F-actin expression,"[1]; compared to bare metal and disks coated with PDA only, FIG. 6",higher CD31/actin ratio
same,endothelialization of the device at sites other than the aneurysm entry (conclusion),[2]; Example 3 conclusion,fast and complete without apparent inflammation nor neointima
same,endothelialization on the inner surface of the flow-diverter stents (conclusion),[2]; Example 3 conclusion,promotes early endothelialization on the inner surface of the flow-diverter stents
same,neo arterial wall at the entry of the aneurysm sac and thrombus inside the sac (conclusion),[2]; Example 3 conclusion,"promotes the growth of an organized, blood-impermeable neo arterial wall at the entry of the aneurysm sac"
same,entry of fresh blood into the aneurysmal sac / thrombus (histopathology),[2]; [4],fresh blood is no longer allowed to enter and remain trapped there
same,organization of the thrombus in the aneurysmal sac (histopathology),[2]; [4],organized
same,inflammation/thrombosis of the arterial wall in contact with the stent struts (histopathology),[2]; [5],absence of inflammation/thrombosis of the arterial wall that is already in contact with the stent struts
same,organization of the thrombus in the aneurysmal sac (histopathology),[2]; [5],very well organized
same,survival and thrombus after implantation,[3],still alive with no thrombus
